{"source": "patent US20050054103A1", "about": "“Expansion of renewable stem cell populations using modulators of PI 3-kinase” (priority 2003, published 2005)", "key": {"primary hepatocytes": {"system": "primary hepatocytes", "assay": "Primary hepatocyte cultures with RAR antagonist (AFP/albumin immunostaining, Giemsa)", "format": "cell-based, mice", "settings": "for α-fetoprotein (AFP) expression vs control: three week old primary cultures, no cytokines", "method": "Three intact livers were harvested from 3 week old VLVC female mice (Harlan Laboratories, Jerusalem, Israel), dissected and washed twice with DMEM (Beit Haemek, Israel), incubated with DMEM in the presence 0.05% collagenase for 30 minutes at 37° C., ground and passed through a 200 μm mesh sieve, yielding individual hepatocytes. Cells were washed twice and viability was ascertained with trypan blue. Cells were plated in collagen-coated, 35 mm tissue culture plates at a density of 4-×10^4 live cells/ml in F12 media (containing 15 mM Hepes, 0.1% glucose, 10 mM sodium bicarbonate, 100 units/ml penicillin-streptomycin, glutamine, 0.5 units/ml insulin, 7.5 m cg/ml hydrocortisone, and 10% fetal bovine serum). Medium was changed after 12 hours, the cells were washed twice with phosphate buffered saline (PBS) and new medium was added. Medium was changed twice a week.\nHepatocytes were also grown in the presence of Epidermal Growth Factor (EGF), Platelet-Derived Growth Factor β chain (PDGF-BB), Fibroblast growth Factors (FGF-4) and Hepatocyte Growth Factor (HGF), at 20-50 ng/ml each, for the entire culturing period according to the method of Schwartz et al. (Schwartz R E, Reyes M, Koodie L, Jiang Y, Blackstad M, Lund T, Lenvik T, Johnson S, Hu W S, Verfaillie C M. Multipotent adult progenitor cells from bone marrow differentiate into functional hepatocyte-like cells. J Clin Invest. 2002; 109 (10): 1291-302). Hepatocytes were also grown in serum free medium according to the method of Runge et al. (Runge D, Runge D M, Jager D, Lubecki K A, Beer Stolz D, Karathanasis S, Kietzmann T, Strom S C, Jungermann K, Fleig W E, Michalopoulos G K. Serum-free, long-term cultures of human hepatocytes: maintenance of cell morphology, transcription factors, and liver-specific functions. Biochem Biophys Res Commun. 2000; 269(1): 46-53).\nIn all of the above-mentioned hepatocytes culture conditions, cells are grown in the presence or absence of the retinoic acid antagonist AGN 194310 at concentrations ranging from 10^−5 M to 10^−9 M.\nAfter a period of 3 weeks, cultures treated with 10^−5 M antagonist were detached with 0.25% trypsin, split and replated at a 1:2 ratio. The cells were either immunostained as described below, or visualized with Giemsa staining.\nMurine hepatocyte cultures supplemented with EGF and HGF were evaluated as primary cultures, or following first and second passages. First passage cultures were grown for 2 weeks, split 1:2 and immunostained 8 days later for the presence of albumin, as described below. Second passage cultures were similarly grown for 2 weeks, split 1:2, and grown for an additional week, then split 1:4 and similarly immunostained 4 days later. […]"}, "[1]": {"system": "lethally irradiated Balb/c X C57B1/6 F1 mice", "assay": "Hematopoietic reconstitution of lethally irradiated mice, fresh vs. ex-vivo expanded cells", "format": "in vivo", "method": "Hematopoietic reconstitution of lethally irradiated mice—fresh vs. ex-vivo expanded cells: Three month old female Balb/c X C57B1/6 F1 mice were lethally irradiated (1000 rad) and transplanted one day later with 1×10^5 fresh bone marrow cells or the yield of 1×10^5 bone marrow cells expanded ex-vivo either with or without TEPA for 3 to 5 weeks, as detailed in Table 12. Peripheral blood WBC counts were performed on weekly basis."}, "Cord blood-derived cells": {"system": "Cord blood-derived cells", "assay": "Storage and separation of cord blood cells in the presence of TEPA, then long-term culture", "format": "cell-based", "settings": "cells stored 24 hours at 4° C. and separated with 10 μM TEPA", "method": "Cord blood-derived cells were collected and stored (unseparated) for 24 hours, at 4° C., either in the presence or absence of 10 μM TEPA. CD34^+ cells were then separated using either 10 μM TEPA-PBS buffer or TEPA free PBS buffer, respectively. Then, cells were grown in long-term cultures in the presence of 10 μM TEPA."}, "[2]": {"settings": "Exp. I, 3 weeks ex-vivo with TEPA + cytokines, day 13"}, "[3]": {"settings": "Exp. I, 3 weeks ex-vivo with TEPA + cytokines, day 19"}, "[4]": {"settings": "Exp. II, 3 weeks ex-vivo with TEPA + cytokines, day 11"}, "[5]": {"settings": "Exp. II, 3 weeks ex-vivo with TEPA + cytokines, day 29"}, "[6]": {"settings": "Exp. III, 5 weeks ex-vivo with TEPA + cytokines, day 6"}, "[7]": {"settings": "Exp. III, 5 weeks ex-vivo with TEPA + cytokines, day 11"}}, "data": [{"smiles": "CCc1ccc(C2=CC(C)(C)Sc3ccc(C#Cc4ccc(C(=O)O)cc4)cc32)cc1", "note": "[AGN 194310]", "values": [{"measurement": "oval cell population (giemsa)", "setting": "primary hepatocytes; 10^−5 M, primary cultures", "result": "marked increase in oval cell population"}, {"measurement": "α-fetoprotein (AFP) expression vs control", "setting": "primary hepatocytes; 10^−5 M", "result": "marked increase in AFP expression"}, {"measurement": "α-fetoprotein (AFP) expression vs control", "setting": "primary hepatocytes; 10^−5 M, listed as retinoic acid antagonist", "result": "increase in the fraction of cells that stained positively for α-fetoprotein"}, {"measurement": "numbers of hepatocytes vs controls", "setting": "primary hepatocytes; second passage, EGF + HGF, 10^−5 M to 10^−7 M", "result": "Significantly greater numbers of hepatocytes"}]}, {"smiles": "NCCNCCNCCNCCN", "note": "[TEPA, tetraethylenepentamine]", "values": [{"measurement": "Survival", "setting": "[1]; [2]", "result": "5/5"}, {"measurement": "WBC × 10^6/ml", "setting": "[1]; [2]", "result": "0.7 × 10^6/ml"}, {"measurement": "Survival", "setting": "[1]; [3]", "result": "5/5"}, {"measurement": "WBC × 10^6/ml", "setting": "[1]; [3]", "result": "1.5 × 10^6/ml"}, {"measurement": "Survival", "setting": "[1]; [4]", "result": "5/5"}, {"measurement": "WBC × 10^6/ml", "setting": "[1]; [4]", "result": "0.92 × 10^6/ml"}, {"measurement": "Survival", "setting": "[1]; [5]", "result": "5/5"}, {"measurement": "WBC × 10^6/ml", "setting": "[1]; [5]", "result": "10.8 × 10^6/ml"}, {"measurement": "Survival", "setting": "[1]; [6]", "result": "5/5"}, {"measurement": "WBC × 10^6/ml", "setting": "[1]; [6]", "result": "0.69 × 10^6/ml"}, {"measurement": "Survival", "setting": "[1]; [7]", "result": "5/5"}, {"measurement": "WBC × 10^6/ml", "setting": "[1]; [7]", "result": "1.27 × 10^6/ml"}, {"measurement": "Survival", "setting": "[1]; Exp. III, 5 weeks ex-vivo with TEPA + cytokines, day 19", "result": "4/5"}, {"measurement": "Survival", "setting": "[1]; Exp. III, 5 weeks ex-vivo with TEPA + cytokines, day 27", "result": "4/5"}, {"measurement": "WBC recovery vs fresh cells or cells expanded without TEPA", "setting": "[1]; bone marrow cells expanded ex-vivo in the presence of TEPA", "result": "faster"}, {"measurement": "duration of expansion of long-term cultures", "setting": "Cord blood-derived cells", "result": 8, "unit": "weeks"}]}]}
